Measurements reported in patent US10124065B2, “Lipids and lipid compositions for the delivery of active agents” (Novartis AG, priority 2013, dated 2018).

Assays:
[1] = Particle size of lipid nanoparticle (dynamic light scattering, Malvern Zetasizer); type: physicochemical; settings: FVII siRNA LNP; Chol/DSPC/S010, molar ratio 45/44/9/2; Z-average
From the text: The lipid nanoparticles have a size of about 1 to about 2,500 nm, about 1 to about 1,500 nm, about 1 to about 1,000 nm, in a sub-embodiment about 50 to about 600 nm, in a sub-embodiment about 50 to about 400 nm, in a sub-embodiment about 50 to about 250 nm, and in a sub-embodiment about 50 to about 150 nm. Unless indicated otherwise, all sizes referred to herein are the average sizes (diameters) of the fully formed nanoparticle, as measured by dynamic light scattering on a Malvern Zetasizer. The nanoparticle sample is diluted in phosphate buffered saline (PBS) so that the count rate is approximately 200-400 kcts. The data is presented as a weighted average of the intensity measure. Unless indicated otherwise, all particle size measurements referred to in Tables 4 and 5 are the Z-average particle size of the fully formed nanoparticle, as measured by dynamic light scattering on a Malvern Zetasizer. The nanoparticle sample was diluted in phosphate buffered saline (PBS) so that the count rate is approximately 200-400 kcts.

[2] = Polydispersity index (PDI) of lipid nanoparticle (dynamic light scattering); type: physicochemical; settings: FVII siRNA LNP; Chol/DSPC/S010, molar ratio 45/44/9/2
Experimental: Unless indicated otherwise, all PDIs referred to herein are the PDI of the fully formed nanoparticle, as measured by dynamic light scattering on a Malvern Zetasizer. The nanoparticle sample was diluted in phosphate buffered saline (PBS) so that the count rate was approximately 200-400 kcts. The data is presented in Tables 4 and 5 as a weighted average of the intensity measure.

[3] = system: plasma Factor VII enzyme activity; assay: Mouse Factor VII dosing / Factor VII Activity Assay; type: in vivo; settings: percent knock down of plasma Factor VII activity; CD-1 mice, single IV dose 0.03 mg/kg, 48 h; LNP Chol/DSPC/S010 45/44/9/2
Experimental: Female CD-1 mice were received from Harlan Labs and maintained on standard lab chow and water ad libitum. The animals weighed approximately 25 grams at time of dosing. Formulated Factor VII siRNA was administered as a single dose intravenously via the lateral tail vein. Approximately 48 hours after injection, the mice were euthanized by CO2 inhalation followed by exsanguination through the vena cava. […] Plasma collected from injected mice was assayed for Factor VII enzyme activity using the Biophen FVII kit from Hyphen Biomedical (catalog number 221304). An assay standard curve was prepared using pooled plasma aliquots from the vehicle control animals. All samples were diluted to fall within the linear range of the standard curve and Factor VII activity relative to control plasma was reported. Lipid nanoparticles comprising lipid compounds of formula (I) and the FVII siRNA duplex sequence listed above were tested in the Factor VII Activity Assay. The results of this assay are given in Table 4 below as a percent knock down of plasma Factor VII enzyme activity at a dose of 0.3 mg/kg and 0.03 mg/kg.

Compound	Size (nm) [1] [nm]	PDI [2]	KD FVII 0.03 mg/kg [3] [%]
CCCCC/C=C\C/C=C\CCCCCCCC(=O)OCCCOc1cc(CN(C)C)cc(OCCCOC(=O)CC(CCCCCCCC)CCCCCCCC)c1 [Ex. 97, (9Z,12Z)-3-(3-((dimethylamino)methyl)-5-(3-((3-octylundecanoyl)oxy)propoxy)phenoxy)propyl octadeca-9,12-dienoate]	98.01	0.106	–
CCCCCCCCOC(=O)CCCCCCCC(=O)OCCCOc1cc(CN(C)C)cc(OCCCOC(=O)CCCCCCCC(=O)OCCCCCCCC)c1 [Ex. 98, O′^1,O^1-(((5-((dimethylamino)methyl)-1,3-phenylene)bis(oxy))bis(propane-3,1-diyl)) 9-dioctyl dinonanedioate]	164.6	0.096	–
CCCCCCCC(=O)OCC(COC(=O)CCCCCCC)OC(=O)CCC(=O)OCc1cc(COC(=O)CCC(=O)OC(COC(=O)CCCCCCC)COC(=O)CCCCCCC)cc(CN(C)C)c1 [Ex. 107, bis(1,3-bis(octanoyloxy)propan-2-yl) O,O′-((5-((dimethylamino)methyl)-1,3-phenylene)bis(methylene))disuccinate]	191.7	0.071	–
CCCCC/C=C\C/C=C\CCCCCCCCOc1cc(COC(=O)CCN(C)C)cc(OCCCCCCCC/C=C\C/C=C\CCCCC)n1 [Example 31, (2,6-bis((9Z,12Z)-octadeca-9,12-dien-1-yloxy)pyridin-4-yl)methyl 3-(dimethylamino)propanoate]	81.16	0.049	–
CCCCCCCCCCCCCC(=O)OCCCCOc1cc(CN(C)C)cc(OCCCCOC(=O)CCCCCCCCCCCCC)c1 [Example 61, ((5-((dimethylamino)methyl)-1,3-phenylene)bis(oxy))bis(butane-4,1-diyl)ditetradecanoate]	–	–	0
CC/C=C\C/C=C\C/C=C\CCCCCCCC(=O)OCCCCOc1cc(CN(C)C)cc(OCCCCOC(=O)CCCCCCC/C=C\C/C=C\C/C=C\CC)c1 [Example 62, (9Z,9′Z,12Z,12′Z,15Z,15′Z)-((5-((dimethylamino)methyl)-1,3-phenylene)bis(oxy))bis(butane-4,1-diyl)bis(octadeca-9,12,15-trienoate)]	–	–	85.8
CCCCC/C=C\C/C=C\CCCCCCCCOC(=O)CCC(=O)OCc1cc(COC(=O)CCC(=O)OCCCCCCCC/C=C\C/C=C\CCCCC)cc(CN(C)C)c1 [Example 77, O,O′-((5-((dimethylamino)methyl)-1,3-phenylene)bis(methylene))di((9Z,12Z)-octadeca-9,12-dien-1-yl)disuccinate]	154.1	0.014	–
CCCCCCCCCC(=O)OCCCCCCCC(=O)OCc1cc(COC(=O)CCCCCCCOC(=O)CCCCCCCCC)cc(CN(C)C)c1 [Example 83]	128.5	0.005	–
CCCCC/C=C\C/C=C\CCCCCCCCOC(=O)CCCCOc1cc(CN(C)C)cc(OCCCCC(=O)OCCCCCCCC/C=C\C/C=C\CCCCC)c1 [Example 89, di((9Z,12Z)-octadeca-9,12-dien-1-yl) 5,5′-((5-((dimethylamino)methyl)-1,3-phenylene)bis(oxy))dipentanoate]	101.5	0.076	–
CCCCCCCC(=O)OC[C@H](CCOc1cc(CN(C)C)cc(OCC[C@@H](COC(=O)CCCCCCC)OC(=O)CCCCCCC)c1)OC(=O)CCCCCCC [Example 93, (S)-4-(3-((S)-3,4-bis(octanoyloxy)butoxy)-5-((dimethylamino)methyl)phenoxy)butane-1,2-diyldioctanoate]	–	–	89.71
CCCCCCCC(=O)OC[C@@H](CCOc1cc(CN(C)C)cc(OCC[C@H](COC(=O)CCCCCCC)OC(=O)CCCCCCC)c1)OC(=O)CCCCCCC [Example 94, (R)-4-(3-((R)-3,4-bis(octanoyloxy)butoxy)-5-((dimethylamino)methyl)phenoxy)butane-1,2-diyldioctanoate]	–	–	90
